Measurements taken from ChEMBL document CHEMBL3272351, “[1-(L-2-hydroxy-3-mercaptopropanoic acid)] analogues of arginine-vasopressin, [8-D-arginine]vasopressin, and [4-valine,8-D-arginine]vasopressin” (J Med Chem, 1977).
Positions of bridges follow the written chain, without caps; N, C: chain ends. Non-standard residues stand in square brackets, D forms with d. Residues, ends and D or L forms follow the SMILES beside them. Mpa = O=C(O)CCS

Tests used:
Rattus norvegicus [1] = species: Rattus norvegicus; experiment: Vasopressor activity in rat; format: organism-based; details: in vivo
[2] = Retardation factor of the compound in butan-1-ol-water (1:1 v/v) by TLC analysis; format: physicochemical; details: buffer
[3] = Retardation factor of the compound in butan-1-ol-acetic acid-water (4:1:5 v/v) by TLC analysis; format: physicochemical; details: buffer
[4] = Oxytocic activity in rat uterus in absence of Mg2+; format: functional
Rattus norvegicus [5] = experiment: Antidiuretic activity in iv dosed rat; format: functional, Urine
[6] = Oxytocic activity in rat uterus in presence of Mg2+; format: functional
[7] = Retardation factor of the compound in ethyl acetate-pyridine-acetic acid-water (5:5:1:3 v/v) by TLC analysis; format: physicochemical; details: buffer
Rattus norvegicus [8] = species: Rattus norvegicus; experiment: Ratio of antidiuretic activity in rat to vasopressor activity in rat; parameters: species or system Urine
Rattus norvegicus [9] = experiment: Antidiuretic activity in sc dosed Brattleboro rat assessed as spontaneous urine output measured every 1 hr for 24 hrs; format: functional
Rattus norvegicus [10] = species: Rattus norvegicus; experiment: Ratio of antidiuretic activity in Brattleboro rat to vasopressor activity in rat; parameters: species or system Urine

Row | Structure (SMILES) | Activity (Rattus norvegicus [1]) | Rf [2] | Rf [3] | Activity [4] | Activity (Rattus norvegicus [5]) | Activity [6] | Rf [7] | Ratio (Rattus norvegicus [8]) | Activity (Rattus norvegicus [9]) | Ratio (Rattus norvegicus [10])
1 | NC(=O)CC[C@@H]1NC(=O)[C@H](Cc2ccccc2)NC(=O)[C@H](Cc2ccc(O)cc2)NC(=O)[C@@H](O)CSSC[C@@H](C(=O)N2CCC[C@H]2C(=O)N[C@@H](CCCN=C(N)N)C(=O)NCC(N)=O)NC(=O)[C@H](CC(N)=O)NC1=O | 549 U/mg | 0.22 | 0.45 | 31 U/mg | 467 U/mg | 96 U/mg | 0.68 | 0.9 |  | 
2 | NC(=O)CC[C@@H]1NC(=O)[C@H](Cc2ccccc2)NC(=O)[C@H](Cc2ccc(O)cc2)NC(=O)[C@@H](O)CSSC[C@@H](C(=O)N2CCC[C@H]2C(=O)N[C@H](CCCN=C(N)N)C(=O)NCC(N)=O)NC(=O)[C@H](CC(N)=O)NC1=O | 0.86 U/mg | 0.22 | 0.45 | 4.3 U/mg | 886 U/mg | 2.6 U/mg | 0.68 | 1030 |  | 
3 | CC(C)[C@@H]1NC(=O)[C@H](Cc2ccccc2)NC(=O)[C@H](Cc2ccc(O)cc2)NC(=O)[C@@H](O)CSSC[C@@H](C(=O)N2CCC[C@H]2C(=O)N[C@H](CCCN=C(N)N)C(=O)NCC(N)=O)NC(=O)[C@H](CC(N)=O)NC1=O | < 0.02 U/mg | 0.48 | 0.68 | 1.1 U/mg | 892 U/mg | 2.8 U/mg | 0.85 | >45000 |  | 
4 | CC(C)[C@@H]1NC(=O)[C@H](Cc2ccccc2)NC(=O)[C@H](Cc2ccc(O)cc2)NC(=O)[C@@H](N)CSSC[C@@H](C(=O)N2CCC[C@H]2C(=O)N[C@H](CCCN=C(N)N)C(=O)NCC(N)=O)NC(=O)[C@H](CC(N)=O)NC1=O | 0.037 U/mg |  |  | 0.6 U/mg | 653 U/mg | 0.9 U/mg |  | 17650 |  | 
5 | CC(C)[C@@H]1NC(=O)[C@H](Cc2ccccc2)NC(=O)[C@H](Cc2ccc(O)cc2)NC(=O)CCSSC[C@@H](C(=O)N2CCC[C@H]2C(=O)N[C@H](CCCNC(=N)N)C(=O)NCC(N)=O)NC(=O)[C@H](CC(N)=O)NC1=O ([Mpa]YFVNCP[dR]G-NH2; disulfide 1-6) | < 0.01 U/mg |  |  | 8 U/mg |  | 2 U/mg |  |  | 1230 U/mg | >123000
6 | N=C(N)NCCC[C@H](NC(=O)[C@@H]1CCCN1C(=O)[C@@H]1CSSCCC(=O)N[C@@H](Cc2ccc(O)cc2)C(=O)N[C@@H](Cc2ccccc2)C(=O)N[C@@H](CCC(N)=O)C(=O)N[C@@H](CC(N)=O)C(=O)N1)C(=O)NCC(N)=O [DESMOPRESSIN] |  |  |  | 54 U/mg |  | 167 U/mg |  |  |  | 
7 | NC(=O)CC[C@@H]1NC(=O)[C@H](Cc2ccccc2)NC(=O)[C@H](Cc2ccc(O)cc2)NC(=O)[C@@H](N)CSSC[C@@H](C(=O)N2CCC[C@H]2C(=O)N[C@@H](CCCN=C(N)N)C(=O)NCC(N)=O)NC(=O)[C@H](CC(N)=O)NC1=O [VASOPRESSIN] | 382 U/mg |  |  | 16 U/mg |  | 57 U/mg |  |  | 330 U/mg | 0.9
